Data reported in patent US20230219962A1, “PYRAZOLO[4,3-d]PYRIMIDINE DERIVATIVES AND METHODS OF USE THEREOF FOR THE TREATMENT OF CELLULAR PROLIFERATIVE DISORDERS” (Merck Sharp & Dohme LLC, priority 2020, published 2023).

Assays:
hTLR8 = target: T1, hTLR8 (Homo sapiens, UniProt Q9NR97); experiment: Human TLR8 Reporter Assay; format: cell-based; conditions: HEK-Blue hTLR8 cells, 16 hours, normalized to tl8-506 (1 μM) and DMSO
T1 construct: host or cells: HEK-Blue hTLR8 cells (HEK293-derived, own knowledge)
T1 sequence (Q9NR97 27-1041): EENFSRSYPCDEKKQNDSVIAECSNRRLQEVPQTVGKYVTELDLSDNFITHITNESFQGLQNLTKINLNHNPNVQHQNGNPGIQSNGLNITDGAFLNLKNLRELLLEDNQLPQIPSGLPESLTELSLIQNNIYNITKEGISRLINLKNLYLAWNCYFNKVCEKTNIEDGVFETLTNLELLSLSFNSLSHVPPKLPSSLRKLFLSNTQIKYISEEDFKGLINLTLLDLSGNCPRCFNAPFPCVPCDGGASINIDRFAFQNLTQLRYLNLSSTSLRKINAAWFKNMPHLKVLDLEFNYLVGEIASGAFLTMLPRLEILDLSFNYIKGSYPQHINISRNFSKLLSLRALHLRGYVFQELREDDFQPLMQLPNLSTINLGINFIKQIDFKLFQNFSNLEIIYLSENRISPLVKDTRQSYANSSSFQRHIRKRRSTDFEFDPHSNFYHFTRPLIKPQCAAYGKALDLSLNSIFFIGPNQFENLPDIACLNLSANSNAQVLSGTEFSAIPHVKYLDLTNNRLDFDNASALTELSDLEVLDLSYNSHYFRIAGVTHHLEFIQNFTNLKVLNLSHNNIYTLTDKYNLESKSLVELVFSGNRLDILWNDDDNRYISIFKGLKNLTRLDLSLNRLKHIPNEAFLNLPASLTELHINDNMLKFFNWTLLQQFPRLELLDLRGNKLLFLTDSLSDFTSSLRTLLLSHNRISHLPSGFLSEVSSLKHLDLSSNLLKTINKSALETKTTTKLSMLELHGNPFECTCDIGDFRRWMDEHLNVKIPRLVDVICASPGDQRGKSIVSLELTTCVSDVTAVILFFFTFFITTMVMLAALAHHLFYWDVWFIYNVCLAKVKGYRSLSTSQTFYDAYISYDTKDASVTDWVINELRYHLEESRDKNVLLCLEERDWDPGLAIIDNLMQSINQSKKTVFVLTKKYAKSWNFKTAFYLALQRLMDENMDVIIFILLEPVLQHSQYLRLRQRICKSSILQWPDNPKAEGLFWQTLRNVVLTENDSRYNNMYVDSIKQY
Method in brief: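 HEK-Blue hTLR8 cells (20,000/well) incubated 16 h at 37 °C with 10-point 3-fold compound dilutions in HEK-Blue Detection medium; reporter read as absorbance at 620 nm. Effects normalized between DMSO and tl8-506 (1 μM); EC50 from 4-parameter fit.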

hTLR7 = target: T2, hTLR7 (Homo sapiens, UniProt Q9NYK1); experiment: Human TLR7 Reporter Assay; format: cell-based; conditions: HEK-Blue hTLR7 cells, 16 hours, normalized to CL097 (6 μM) and DMSO
T2 construct: host or cells: HEK-Blue hTLR7 cells (HEK293-derived, own knowledge)
T2 sequence (Q9NYK1 27-1049): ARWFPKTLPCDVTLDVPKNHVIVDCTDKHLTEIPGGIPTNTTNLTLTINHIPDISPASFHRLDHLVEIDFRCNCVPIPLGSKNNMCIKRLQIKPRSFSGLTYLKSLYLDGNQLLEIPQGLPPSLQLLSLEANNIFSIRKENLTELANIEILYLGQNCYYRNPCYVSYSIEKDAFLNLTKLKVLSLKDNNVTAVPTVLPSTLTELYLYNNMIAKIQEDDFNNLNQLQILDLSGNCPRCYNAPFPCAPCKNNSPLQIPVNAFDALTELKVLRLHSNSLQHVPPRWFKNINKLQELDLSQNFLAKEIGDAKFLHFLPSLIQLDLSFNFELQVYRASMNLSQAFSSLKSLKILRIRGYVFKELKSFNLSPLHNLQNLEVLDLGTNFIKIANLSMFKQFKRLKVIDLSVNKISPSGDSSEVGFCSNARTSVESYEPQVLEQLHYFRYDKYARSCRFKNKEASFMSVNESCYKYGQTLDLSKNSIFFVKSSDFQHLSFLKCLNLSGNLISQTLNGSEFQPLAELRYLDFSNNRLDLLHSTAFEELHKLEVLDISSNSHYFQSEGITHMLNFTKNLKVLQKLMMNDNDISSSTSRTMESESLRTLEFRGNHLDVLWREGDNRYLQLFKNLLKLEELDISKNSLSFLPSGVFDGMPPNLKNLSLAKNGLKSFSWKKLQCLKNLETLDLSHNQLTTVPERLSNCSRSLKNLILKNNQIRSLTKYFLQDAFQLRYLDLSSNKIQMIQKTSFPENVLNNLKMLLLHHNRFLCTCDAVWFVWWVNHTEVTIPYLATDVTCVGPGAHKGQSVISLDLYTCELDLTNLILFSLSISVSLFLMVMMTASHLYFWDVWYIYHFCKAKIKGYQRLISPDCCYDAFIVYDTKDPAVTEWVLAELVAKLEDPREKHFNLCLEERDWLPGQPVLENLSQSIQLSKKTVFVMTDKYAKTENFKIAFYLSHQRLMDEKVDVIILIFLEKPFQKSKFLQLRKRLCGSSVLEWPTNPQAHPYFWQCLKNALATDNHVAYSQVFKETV
Method in brief: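 HEK-Blue hTLR7 reporter cells (20,000/well) incubated 16 h at 37 °C with 10-point 3-fold compound dilutions; SEAP read by absorbance at 620 nm. Effects normalized between CL097 (6 μM) and DMSO controls; EC50 from 4-parameter fit.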

SMILES | EC50 (hTLR8) [nM] | EC50 (hTLR7) [nM]
CCCCNc1nc(N)nc2cn(Cc3nc(CNC)oc3C)nc12 [Compound 165] | 4680 | 1360
C=CC(=O)NC[C@H]1CC[C@H](C(=O)N2CCN(c3ccc(Cn4cc5nc(N)nc(NCCCC)c5n4)c(OC)c3)CC2)CC1 [Compound 120] | 2220 | 112
CCC[C@H](CO)Nc1nc(N)nc2cn(Cc3ccccc3OC)nc12 [Compound 29] | 28200 | 2770
CCCCNc1nc(N)nc2cn(Cc3c(OC)ccc(N)c3OC)nc12 [Compound 77] | 1530 | 490
CCCCNc1nc(N)nc2cn(Cc3cncnc3OC)nc12 [Compound 106] | 1700 | 311
CCCCNc1nc(N)nc2cn(Cc3cc(CN4CC(CN)C4)ccc3OC)nc12 [Compound 151] | 869 | 2260
CCCCNc1nc(N)nc2cn(Cc3[nH]cnc3C)nc12 [Compound 188] | 12400 | 5440
CCCCNc1nc(N)nc2cn(Cc3ccc(C4CCNC4)cc3)nc12 (stereo not shown) [Compound 196] | 756 | 456
CCCCNc1nc(N)nc2cn(Cc3c(OC)cc(CNC(=O)C4CCC(CN5C(=O)C=CC5=O)CC4)cc3OC)nc12 (stereo not shown) [Compound 72] | > 29900 | 597
CCCCNc1nc(N)nc2cn(Cc3ccc(CN4CCN(C(=O)C5CCC(CN6C(=O)C=CC6=O)CC5)CC4)cc3OC)nc12 (stereo not shown) [Compound 69] | 1490 | 243
CCCCNc1nc(N)nc2cn(Cc3c(OC)cc(CNC(=O)CCN4C(=O)C=CC4=O)cc3OC)nc12 [Compound 96] | 7840 | 1970
CCCCNc1nc(N)nc2cn(Cc3c(OC)cc(CN4CC(N)C4)cc3OC)nc12 [Compound 192] | 1160 | 653
CCCCNc1nc(N)nc2cn(Cc3c(OC)cc(C(C)N)cc3OC)nc12 (stereo not shown) [Compound 214] | 235 | 525
CCCCNc1nc(N)nc2cn(Cc3sc(C)nc3C)nc12 [Compound 175] | 1110 | 112
CCC[C@@H](CO)Nc1nc(N)nc2cn(Cc3c(OC)cc(CN(C)CCCN)cc3OC)nc12 [Compound 210] | 15500 | 20100
CCCCNc1nc(N)nc2cn(Cc3cncn3C)nc12 [Compound 180] | 6370 | 1140
CCCCNc1nc(N)nc2cn(Cc3c(OC)cc(CN4CCN(C(=O)C5CCC(CN6C(=O)CC(SC[C@H](N)C(=O)O)C6=O)CC5)CC4)cc3OC)nc12 (stereo partly shown) [Compound 89] | 24600 | 2620
CCCCNc1nc(N)nc2cn(Cc3c(OC)cc(C(C)NC)cc3OC)nc12 (stereo not shown) [Compound 211] | 198 | 365
COc1cccc(OC)c1Cn1cc2nc(N)nc(NC(C)C)c2n1 [Compound 27] | 4380 | 1120
CCCCNc1nc(N)nc2cn(Cc3nc(C)no3)nc12 [Compound 170] | 4430 | 1560
CCCCNc1nc(N)nc2cn(Cc3cc(CNC)ccc3OC)nc12 [Compound 148] | 590 | 370
CCCC(C)Nc1nc(N)nc2cn(Cc3c(OC)cc(CNC)cc3OC)nc12 (stereo not shown) [Compound 164] | 168 | 110

SMILES | EC50 (hTLR8) [nM] | EC50 (hTLR7) [nM]
CCC[C@@H](CO)Nc1nc(N)nc2cn(Cc3c(OC)cc(CN(C)CCNC(=O)c4cccnc4)cc3OC)nc12 [Compound 218] | 1490 | 6360
C=CCN(C)Cc1ccc(Cn2cc3nc(N)nc(N[C@H](CO)CCC)c3n2)c(OC)c1 [Compound 156] | 153 | 76.8
CCCCNc1nc(N)nc2cn(Cc3ccc(C(C)NCCC)cc3OC)nc12 (stereo not shown) [Compound 216] | 119 | 106
CCCCNc1nc(N)nc2cn(Cc3ccc(CN4CCN(C(=O)CN5C(=O)C=CC5=O)CC4)cc3OC)nc12 [Compound 105] | 6400 | 1790
CCCCNc1nc(N)nc2cn(Cc3ccc(C(C)N(C)C)cc3OC)nc12 (stereo not shown) [Compound 220] | 170 | 118
CCCCNc1nc(N)nc2cn(Cc3ncccn3)nc12 [Compound 122] | 1400 | 288
CCCCNc1nc(N)nc2cn(Cc3c(OC)cc(C(C)N)cc3OC)nc12 (stereo not shown) [Compound 215] | 224 | 474
CCC[C@@H](CO)Nc1nc(N)nc2cn(Cc3c(OC)cccc3OC)nc12 [Compound 108] | 116 | 29.3
CCCCNc1nc(N)nc2cn(Cc3c(OC)ccc(CCN)c3OC)nc12 [Compound 79] | 1810 | 4450
CCC[C@@H](CO)Nc1nc(N)nc2cn(Cc3ccc(CNC)cc3OC)nc12 [Compound 155] | 6530 | 2460
C=CCN(C)Cc1cnc(Cn2cc3nc(N)nc(N[C@H](CO)CCC)c3n2)c(OC)c1 [Compound 185] | 103 | 382
CCCCNc1nc(N)nc2cn(Cc3ccc(C4CCNC4=O)cc3)nc12 (stereo not shown) [Compound 200] | 4900 | 185
CCCCNc1nc(N)nc2cn(Cc3ccc(C4CCNC4)cc3)nc12 (stereo not shown) [Compound 198] | 835 | 396
COc1cccc(OC)c1Cn1cc2nc(N)nc(NCC(C)C)c2n1 [Compound 50] | > 29900 | 843
CCC[C@@H](CO)Nc1nc(N)nc2cn(Cc3c(OC)cc(CN)cc3OC)nc12 [Compound 152] | 122 | 185
CCCCNc1nc(N)nc2cn(Cc3c(OC)cccc3OCCCC(=O)OC)nc12 [Compound 206] | 2640 | 380
COc1cccc(OC)c1Cn1cc2nc(N)nc(NCCC(C)O)c2n1 (stereo not shown) [Compound 52] | > 29900 | 2800
C=CCN(C)Cc1cc(OC)c(Cn2cc3nc(N)nc(N[C@H](C)CCC)c3n2)c(OC)c1 [Compound 187] | 63.3 | 20
CCCCNc1nc(N)nc2cn(Cc3ccc(C4CCC(=O)N4)cc3)nc12 (stereo not shown) [Compound 201] | 3260 | 539
CCCCNc1nc(N)nc2cn(Cc3ccc(C4CCNC4=O)cc3)nc12 (stereo not shown) [Compound 202] | 3470 | 354
CCCCNc1nc(N)nc2cn(Cc3ccc(C4CCNCC4)nc3OC)nc12 [Compound 138] | 1780 | 191
CCCCNc1nc(N)nc2cn(Cc3ccc(N4CCN(C(=O)[C@H]5CC[C@H](CN)CC5)CC4)cc3OC)nc12 [Compound 115] | 5590 | 329
